In ChEMBL document CHEMBL3632580, “Structure-activity relationship of indoloquinoline analogs anti-MRSA” (2015):
Values after ≈ are worked out from the molar mass of the structure shown.

Key:
Format in all cases: functional
Staphylococcus aureus [1] = test: Antibacterial activity against methicillin-resistant Staphylococcus aureus OM481
Staphylococcus aureus [2] = test: Antibacterial activity against methicillin-resistant Staphylococcus aureus OM584
P388 = test: Antitumor activity against mouse P388 cells implanted in CD2F1 mouse assessed as tumor growth inhibition at 6.25 mg/kg, ip relative to control

| SMILES | MIC (Staphylococcus aureus [1]) | MIC (Staphylococcus aureus [2]) | T/C (P388) |
| --- | --- | --- | --- |
| Clc1cccc(Nc2c3ccccc3nc3c2[nH]c2ccccc23)c1 | 125 µg/mL (≈ 364 µM) | 125 µg/mL (≈ 364 µM) |  |
| COc1ccc2[nH]c3c(Nc4ccc(O)cc4)c4ccccc4nc3c2c1 | 2 µg/mL (≈ 5.63 µM) | 2 µg/mL (≈ 5.63 µM) |  |
| Oc1ccc(Nc2c3c(nc4ccccc24)-c2ccccc2C3)cc1 | 250 µg/mL (≈ 771 µM) | > 250 µg/mL |  |
| Cl.Oc1ccc(Nc2c3ccccc3nc3ccccc23)cc1 | 250 µg/mL | > 250 µg/mL |  |
| Oc1cccc(Nc2c3ccccc3nc3c2[nH]c2ccccc23)c1 | 16 µg/mL (≈ 49.2 µM) | 8 µg/mL (≈ 24.6 µM) |  |
| Oc1ccc(Nc2c3ccccc3nc3c2[nH]c2ccc(Cl)cc23)cc1 | 8 µg/mL (≈ 22.2 µM) | 4 µg/mL (≈ 11.1 µM) |  |
| Cn1c2ccccc2c2nc3ccccc3c(Nc3ccc(O)cc3)c21 | 250 µg/mL (≈ 737 µM) | 8 µg/mL (≈ 23.6 µM) |  |
| Oc1ccc(Nc2c3ccccc3nc3c2oc2ccccc23)cc1 | 2 µg/mL (≈ 6.13 µM) | 2 µg/mL (≈ 6.13 µM) |  |
| O=[N+]([O-])c1ccc(Nc2c3ccccc3nc3c2[nH]c2ccccc23)cc1 | > 250 µg/mL | > 250 µg/mL |  |
| CC1c2ccccc2-c2nc3ccccc3c(Nc3ccc(O)cc3)c21 (stereo unspecified) | 16 µg/mL (≈ 47.3 µM) | 4 µg/mL (≈ 11.8 µM) |  |
| COc1ccc(Nc2c3ccccc3nc3c2[nH]c2ccccc23)cc1 | 16 µg/mL (≈ 47.1 µM) | 8 µg/mL (≈ 23.6 µM) |  |
| Fc1ccc(Nc2c3ccccc3nc3c2[nH]c2ccccc23)cc1 | 8 µg/mL (≈ 24.4 µM) | 8 µg/mL (≈ 24.4 µM) |  |
| Cc1ccc2[nH]c3c(Nc4ccc(O)cc4)c4ccccc4nc3c2c1 | 4 µg/mL (≈ 11.8 µM) | 2 µg/mL (≈ 5.89 µM) |  |
| COc1cccc(Nc2c3ccccc3nc3c2[nH]c2ccccc23)c1 | > 250 µg/mL | > 250 µg/mL |  |
| Clc1ccccc1Nc1c2ccccc2nc2c1[nH]c1ccccc12 | 8 µg/mL (≈ 23.3 µM) | 4 µg/mL (≈ 11.6 µM) |  |
| Clc1ccc(Nc2c3ccccc3nc3c2[nH]c2ccccc23)cc1 | 8 µg/mL (≈ 23.3 µM) | 4 µg/mL (≈ 11.6 µM) |  |
| CN(c1ccc(O)cc1)c1c2ccccc2nc2c1[nH]c1ccccc12 | > 250 µg/mL | > 250 µg/mL |  |
| Cl.Oc1ccccc1Nc1c2ccccc2nc2c1[nH]c1ccccc12 | 16 µg/mL | 16 µg/mL |  |
| Oc1ccc(Nc2c3ccccc3nc3c2[nH]c2ccccc23)cc1 | 4 µg/mL (≈ 12.3 µM) | 2 µg/mL (≈ 6.15 µM) |  |
| COc1cc(O)ccc1Nc1c2ccccc2nc2c1[nH]c1ccccc12 | 8 µg/mL (≈ 22.5 µM) | 16 µg/mL (≈ 45 µM) |  |
| Cc1ccc(Nc2c3ccccc3nc3c2[nH]c2ccccc23)cc1 | 62.5 µg/mL (≈ 193 µM) | 62.5 µg/mL (≈ 193 µM) |  |
| COc1cc(NS(C)(=O)=O)ccc1Nc1c2ccccc2nc2c1[nH]c1ccccc12 | 8 µg/mL (≈ 18.5 µM) | 16 µg/mL (≈ 37 µM) | 300% |
| CC(=O)Oc1ccc(Nc2c3ccccc3nc3c2[nH]c2ccccc23)cc1.Cl | 16 µg/mL | 8 µg/mL |  |
| COc1ccccc1Nc1c2ccccc2nc2c1[nH]c1ccccc12 | > 250 µg/mL | > 250 µg/mL |  |
| c1ccc(Nc2c3ccccc3nc3c2[nH]c2ccccc23)cc1 | 8 µg/mL (≈ 25.9 µM) | 4 µg/mL (≈ 12.9 µM) |  |
